In PubChem BioAssay AID1259407 (Chemical Carcinogenesis Research Information System (CCRIS), 2018):
Active and inactive are the calls of the source. How the calls were made is not given here.

Tested on: CCRIS mutagenicity, Ames/micronucleus/aberration tests
Assay: CCRIS mutagenicity studies
[1] = Test System: AMES SALMONELLA TYPHIMURIUM, Strain/Indicator: TA98, Metabolic Activation: NONE, Method: STANDARD PLATE
[2] = Test System: AMES SALMONELLA TYPHIMURIUM, Strain/Indicator: TA100, Metabolic Activation: NONE, Method: STANDARD PLATE

## Nc1ccccc1-c1ccccc1
End Point: IN VITRO CHROMOSOMAL ABERRATIONS, Test System: CHO CELLS, Metabolic Activation: RAT, LIVER, S-9, AROCLOR 1254
  mutagenic call: inactive; negative
End Point: IN VITRO CHROMOSOMAL ABERRATIONS, Test System: CHO-WBL CELLS, Metabolic Activation: RAT, LIVER, S-9, PHENOBARBITAL AND BETA-NAPHTHOFLAVONE
  mutagenic call: active; positive (at 24 hr)
Test System: AMES SALMONELLA TYPHIMURIUM, Strain/Indicator: TA97, Metabolic Activation: HAMSTER, LIVER, S-9, AROCLOR 1254 (10%), Method: PREINCUBATION
  mutagenic call: inactive; negative
Test System: AMES SALMONELLA TYPHIMURIUM, Strain/Indicator: TA97, Metabolic Activation: NONE, Method: PREINCUBATION
  mutagenic call: inactive; negative
Test System: AMES SALMONELLA TYPHIMURIUM, Strain/Indicator: TA97, Metabolic Activation: RAT, LIVER, S-9, AROCLOR 1254 (10%), Method: PREINCUBATION
  mutagenic call: inactive; negative
Test System: AMES SALMONELLA TYPHIMURIUM, Strain/Indicator: TA98, Metabolic Activation: HAMSTER, LIVER, S-9, AROCLOR 1254 (10%), Method: PREINCUBATION
  mutagenic call: inactive; negative
Test System: AMES SALMONELLA TYPHIMURIUM, Strain/Indicator: TA98, Metabolic Activation: NONE, Method: PREINCUBATION
  mutagenic call: inactive; negative
[1]
  mutagenic call: inactive; negative
Test System: AMES SALMONELLA TYPHIMURIUM, Strain/Indicator: TA98, Metabolic Activation: RAT LIVER S-9, AROCLOR 1254, Method: PREINCUBATION
  mutagenic call: inactive; negative
Test System: AMES SALMONELLA TYPHIMURIUM, Strain/Indicator: TA98, Metabolic Activation: RAT, LIVER, S-9, AROCLOR 1254 (4%), Method: STANDARD PLATE
  mutagenic call: inactive; negative
Test System: AMES SALMONELLA TYPHIMURIUM, Strain/Indicator: TA98, Metabolic Activation: RAT, LIVER, S-9, AROCLOR 1254 (10%), Method: PREINCUBATION
  mutagenic call: inactive; negative
Test System: AMES SALMONELLA TYPHIMURIUM, Strain/Indicator: TA100, Metabolic Activation: HAMSTER, LIVER, S-9, AROCLOR 1254 (10%), Method: PREINCUBATION
  mutagenic call: active; positive
Test System: AMES SALMONELLA TYPHIMURIUM, Strain/Indicator: TA100, Metabolic Activation: NONE, Method: PREINCUBATION
  mutagenic call: inactive; negative
[2]
  mutagenic call: inactive; negative
Test System: AMES SALMONELLA TYPHIMURIUM, Strain/Indicator: TA100, Metabolic Activation: RAT LIVER S-9, AROCLOR 1254, Method: PREINCUBATION
  mutagenic call: inactive; negative
Test System: AMES SALMONELLA TYPHIMURIUM, Strain/Indicator: TA100, Metabolic Activation: RAT, LIVER, S-9, AROCLOR 1254 (10%), Method: PREINCUBATION
  mutagenic call: active; positive
Test System: AMES SALMONELLA TYPHIMURIUM, Strain/Indicator: TA1535, Metabolic Activation: HAMSTER, LIVER, S-9, AROCLOR 1254 (10%), Method: PREINCUBATION
  mutagenic call: inactive; negative
Test System: AMES SALMONELLA TYPHIMURIUM, Strain/Indicator: TA1535, Metabolic Activation: NONE, Method: PREINCUBATION
  mutagenic call: inactive; negative
Test System: AMES SALMONELLA TYPHIMURIUM, Strain/Indicator: TA1535, Metabolic Activation: RAT, LIVER, S-9, AROCLOR 1254 (10%), Method: PREINCUBATION
  mutagenic call: inactive; negative

## C=C(C)C(=O)OCCOCCOCCOC(=O)C(=C)C
Test System: AMES SALMONELLA TYPHIMURIUM, Strain/Indicator: TA97A, Metabolic Activation: NONE, Method: STANDARD PLATE
  mutagenic call: inactive; negative
Test System: AMES SALMONELLA TYPHIMURIUM, Strain/Indicator: TA97A, Metabolic Activation: RAT, LIVER, S-9, PHENOBARBITAL AND BETA-NAPHTHAFLAVONE, Method: STANDARD PLATE
  mutagenic call: inactive; negative
[1]
  mutagenic call: inactive; negative
Test System: AMES SALMONELLA TYPHIMURIUM, Strain/Indicator: TA98, Metabolic Activation: RAT, LIVER, S-9, PHENOBARBITAL AND BETA-NAPHTHAFLAVONE, Method: STANDARD PLATE
  mutagenic call: inactive; negative
[2]
  mutagenic call: inactive; negative
Test System: AMES SALMONELLA TYPHIMURIUM, Strain/Indicator: TA100, Metabolic Activation: RAT, LIVER, S-9, PHENOBARBITAL AND BETA-NAPHTHAFLAVONE, Method: STANDARD PLATE
  mutagenic call: inactive; negative
Test System: AMES SALMONELLA TYPHIMURIUM, Strain/Indicator: TA102, Metabolic Activation: NONE, Method: STANDARD PLATE
  mutagenic call: inactive; negative
Test System: AMES SALMONELLA TYPHIMURIUM, Strain/Indicator: TA102, Metabolic Activation: RAT, LIVER, S-9, PHENOBARBITAL AND BETA-NAPHTHAFLAVONE, Method: STANDARD PLATE
  mutagenic call: inactive; negative
Test System: CHINESE HAMSTER V-79, Strain/Indicator: V-79 (HPRT)/6-THIOGUANINE, Metabolic Activation: NONE
  mutagenic call: active; positive
Test System: CHINESE HAMSTER V-79, Strain/Indicator: V-79 (HPRT)/6-THIOGUANINE, Metabolic Activation: R, L, S-9, PHENOBARBITAL AND BETA-NAPHTHOFLAVONE
  mutagenic call: inactive; negative

## CC(Br)(CBr)COP(=O)(OCC(C)(Br)CBr)OCC(C)(Br)CBr (stereo unspecified)
Test System: AMES SALMONELLA TYPHIMURIUM, Strain/Indicator: TA100, Metabolic Activation: RAT, LIVER, MICROSOMES, PHENOBARBITAL, Method: PREINCUBATION
  mutagenic call: inactive; negative
Test System: AMES SALMONELLA TYPHIMURIUM, Strain/Indicator: TA100, Metabolic Activation: RAT, LIVER, MICROSOMES, Method: PREINCUBATION
  mutagenic call: inactive; negative
